# Tested on: MV-4-11 cells
# Assay: Gene expression microarray analysis (Affymetrix PrimeView) and GSEA
# Type: cell-based, human
# Parameters: RFU PODN (11730768_x_at) / Fold change /veh PODN (11730768_x_at) / RFU LINC00158 (11744669_a_at) / Fold change /veh LINC00158 (11744669_a_at) / RFU DUSP10 (11751237_a_at) / Fold change /veh DUSP10 (11751237_a_at) / RFU ID3 (11757404_x_at) / Fold change /veh ID3 (11757404_x_at) / RFU PLEKHG5 (11737974_s_at) / Fold change /veh PLEKHG5 (11737974_s_at) / RFU LRRC4B (11730491_at) / Fold change /veh LRRC4B (11730491_at) / RFU GIMAP4 (11747438_a_at) / Fold change /veh GIMAP4 (11747438_a_at) / RFU KRT8 (11758183_x_at) / Fold change /veh KRT8 (11758183_x_at) / RFU CNN1 (11734310_a_at) / Fold change /veh CNN1 (11734310_a_at) / RFU VPS37D (11726825_at) / Fold change /veh VPS37D (11726825_at) / RFU C10orf10 (11716522_x_at) / Fold change /veh C10orf10 (11716522_x_at) / RFU KIR2DL2 /// KIR2DL4 /// KIR2DL5A /// KIR2DL5B /// KIR2DS1 /// KIR2DS2 /// KIR2DS3 /// KIR2DS4 /// KIR3DL3 /// KIR3DL3 /// KIR3DS1 (11738374_at) / Fold change /veh KIR2DL2 /// KIR2DL4 /// KIR2DL5A /// KIR2DL5B /// KIR2DS1 /// KIR2DS2 /// KIR2DS3 /// KIR2DS4 /// KIR3DL3 /// KIR3DL3 /// KIR3DS1 (11738374_at) / RFU C1QL1 (11718748_at) / Fold change /veh C1QL1 (11718748_at) / RFU TMPRSS4 (11747572_a_at) / Fold change /veh TMPRSS4 (11747572_a_at) / RFU HAMP (11756126_x_at) / Fold change /veh HAMP (11756126_x_at) / RFU RNFT2 (11725882_a_at) / Fold change /veh RNFT2 (11725882_a_at) / RFU NR4A2 (11747474_a_at) / Fold change /veh NR4A2 (11747474_a_at) / RFU ABCC12 (11746883_a_at) / Fold change /veh ABCC12 (11746883_a_at) / RFU TMEM136 (11760407_x_at) / Fold change /veh TMEM136 (11760407_x_at) / RFU CLDN22 /// WWC2 (11732394_at) / Fold change /veh CLDN22 /// WWC2 (11732394_at) / RFU HLA-DPB1 (11760878_x_at) / Fold change /veh HLA-DPB1 (11760878_x_at) / RFU SPINT1 (11716480_a_at) / Fold change /veh SPINT1 (11716480_a_at) / RFU GAP43 (11754022_s_at) / Fold change /veh GAP43 (11754022_s_at) / RFU A4GNT (11735810_at) / Fold change /veh A4GNT (11735810_at) / RFU PRB3 (11715151_x_at) / Fold change /veh PRB3 (11715151_x_at) / RFU TUBB4B (11761932_at) / Fold change /veh TUBB4B (11761932_at) / RFU CAPN14 (11732068_a_at) / Fold change /veh CAPN14 (11732068_a_at) / RFU TMCC2 (11721928_a_at) / Fold change /veh TMCC2 (11721928_a_at) / RFU IRGQ (11745062_a_at) / Fold change /veh IRGQ (11745062_a_at) / RFU FAM174B (11720279_a_at) / Fold change /veh FAM174B (11720279_a_at) / RFU TMPRSS4 (11748680_a_at) / Fold change /veh TMPRSS4 (11748680_a_at) / RFU FAM212B (11763350_a_at) / Fold change /veh FAM212B (11763350_a_at) / RFU PLEKHG5 (11743358_a_at) / Fold change /veh PLEKHG5 (11743358_a_at) / RFU ZSCAN30 (11745921_a_at) / Fold change /veh ZSCAN30 (11745921_a_at) / RFU CMKLR1 (11741424_a_at) / Fold change /veh CMKLR1 (11741424_a_at) / RFU LOC101060620 /// MAPK8IP1 (11723275_at) / Fold change /veh LOC101060620 /// MAPK8IP1 (11723275_at) / RFU SPTSSB (11747773_x_at) / Fold change /veh SPTSSB (11747773_x_at) / RFU PRSS12 (11739890_at) / Fold change /veh PRSS12 (11739890_at) / RFU BIN1 (11741810_x_at) / Fold change /veh BIN1 (11741810_x_at) / RFU WNT11 (11732464_a_at) / Fold change /veh WNT11 (11732464_a_at) / RFU C10orf10 (11716521_a_at) / Fold change /veh C10orf10 (11716521_a_at) / RFU C5orf56 (11738089_at) / Fold change /veh C5orf56 (11738089_at) / RFU CYB561 (11721691_x_at) / Fold change /veh CYB561 (11721691_x_at) / RFU ANKRD19P (11752326_a_at) / Fold change /veh ANKRD19P (11752326_a_at) / RFU OR2T12 /// OR2T33 /// OR2T8 (11738714_s_at) / Fold change /veh OR2T12 /// OR2T33 /// OR2T8 (11738714_s_at) / RFU VCAN (11748164_a_at) / Fold change /veh VCAN (11748164_a_at) / RFU JSRP1 (11732532_at) / Fold change /veh JSRP1 (11732532_at) / RFU KRTAP10-11 (11738290_x_at) / Fold change /veh KRTAP10-11 (11738290_x_at) / RFU MYO3A (11730013_a_at) / Fold change /veh MYO3A (11730013_a_at) / RFU EBF3 (11725865_a_at) / Fold change /veh EBF3 (11725865_a_at) / RFU CAMK2N1 (11719241_x_at) / Fold change /veh CAMK2N1 (11719241_x_at) / RFU C5orf56 (11738088_a_at) / Fold change /veh C5orf56 (11738088_a_at) / RFU OLFML3 (11715873_a_at) / Fold change /veh OLFML3 (11715873_a_at) / RFU LOC100653217 /// NTM (11731650_a_at) / Fold change /veh LOC100653217 /// NTM (11731650_a_at) / RFU MAPK11 (11762145_a_at) / Fold change /veh MAPK11 (11762145_a_at) / RFU FIZ1 (11724087_x_at) / Fold change /veh FIZ1 (11724087_x_at) / RFU OASL (11726364_x_at) / Fold change /veh OASL (11726364_x_at) / RFU SOX15 (11748057_x_at) / Fold change /veh SOX15 (11748057_x_at) / RFU CD79A (11719716_a_at) / Fold change /veh CD79A (11719716_a_at) / RFU HIST1H1D (11736915_at) / Fold change /veh HIST1H1D (11736915_at) / RFU CASKIN2 (11723855_a_at) / Fold change /veh CASKIN2 (11723855_a_at) / RFU LOC730098 (11760151_x_at) / Fold change /veh LOC730098 (11760151_x_at) / RFU OR4N2 (11742367_at) / Fold change /veh OR4N2 (11742367_at) / RFU PRRT2 (11749266_a_at) / Fold change /veh PRRT2 (11749266_a_at) / RFU SNX32 (11753110_a_at) / Fold change /veh SNX32 (11753110_a_at) / RFU CDHR5 (11726645_a_at) / Fold change /veh CDHR5 (11726645_a_at) / RFU RCAN1 (11760418_a_at) / Fold change /veh RCAN1 (11760418_a_at) / RFU FAM167A (11723789_a_at) / Fold change /veh FAM167A (11723789_a_at) / RFU FAM26E (11764081_at) / Fold change /veh FAM26E (11764081_at) / RFU ISYNA1 (11749810_s_at) / Fold change /veh ISYNA1 (11749810_s_at) / RFU ACY1 (11761880_at) / Fold change /veh ACY1 (11761880_at) / RFU 11764098_at / Fold change /veh 11764098_at / RFU SAMD14 (11745864_x_at) / Fold change /veh SAMD14 (11745864_x_at) / RFU NPB (11741838_a_at) / Fold change /veh NPB (11741838_a_at) / RFU TMPRSS6 (11731388_a_at) / Fold change /veh TMPRSS6 (11731388_a_at) / RFU KRTAP10-2 (11738614_at) / Fold change /veh KRTAP10-2 (11738614_at) / RFU ARHGAP8 /// PRR5-ARHGAP8 (11727945_x_at) / Fold change /veh ARHGAP8 /// PRR5-ARHGAP8 (11727945_x_at) / RFU KRTAP5-7 /// NADSYN1 (11734609_at) / Fold change /veh KRTAP5-7 /// NADSYN1 (11734609_at) / RFU RASL12 (11751679_a_at) / Fold change /veh RASL12 (11751679_a_at) / RFU CDKN2B (11736163_a_at) / Fold change /veh CDKN2B (11736163_a_at) / RFU PRF1 (11729649_at) / Fold change /veh PRF1 (11729649_at) / RFU, ZNF638 /// ZNF638-IT1 / Fold change vs veh, ZNF638 /// ZNF638-IT1 / RFU, PANK3 / Fold change vs veh, PANK3 / RFU, SH3YL1 / Fold change vs veh, SH3YL1 / RFU, ZEB2 / Fold change vs veh, ZEB2 / RFU, NRIP1 / Fold change vs veh, NRIP1 / RFU, PTTG1IP / Fold change vs veh, PTTG1IP / RFU, CAPN2 / Fold change vs veh, CAPN2 / RFU, MED14 / Fold change vs veh, MED14 / RFU, SNORA58 / Fold change vs veh, SNORA58 / RFU, C1orf63 / Fold change vs veh, C1orf63 / RFU, LRRFIP1 / Fold change vs veh, LRRFIP1 / RFU, NDUFAF7 / Fold change vs veh, NDUFAF7 / RFU, SLC12A2 / Fold change vs veh, SLC12A2 / RFU, IBTK / Fold change vs veh, IBTK / RFU, ESF1 / Fold change vs veh, ESF1 / Fold change vs veh, TMEM50B / RFU, TAOK1 / Fold change vs veh, TAOK1 / RFU, ACBD3 / Fold change vs veh, ACBD3 / RFU, TMA16 / Fold change vs veh, TMA16 / RFU, RWDD3 / Fold change vs veh, RWDD3 / RFU, BCAT1 / Fold change vs veh, BCAT1 / RFU, EDEM3 / Fold change vs veh, EDEM3 / RFU, TMEM33 / Fold change vs veh, TMEM33 / RFU, WDR75 / Fold change vs veh, WDR75 / RFU, AHCTF1 / Fold change vs veh, AHCTF1 / RFU, TFRC / Fold change vs veh, TFRC / RFU, ZDHHC17 / Fold change vs veh, ZDHHC17 / RFU, NOM1 / Fold change vs veh, NOM1 / RFU, ARL8B / Fold change vs veh, ARL8B / RFU, ZBTB11 / Fold change vs veh, ZBTB11 / RFU, TAMM41 / Fold change vs veh, TAMM41 / RFU, KIAA1704 /// LOC100996395 / Fold change vs veh, KIAA1704 /// LOC100996395 / RFU, ING1 / Fold change vs veh, ING1 / RFU, TRMT61B / Fold change vs veh, TRMT61B / RFU, FUBP3 / Fold change vs veh, FUBP3 / RFU, TP53 / Fold change vs veh, TP53 / RFU, TNKS2 / Fold change vs veh, TNKS2 / RFU, ZFP14 / Fold change vs veh, ZFP14 / RFU, ACTR2 / Fold change vs veh, ACTR2 / RFU, PPP3R1 / Fold change vs veh, PPP3R1 / RFU, PIK3R1 / Fold change vs veh, PIK3R1 / RFU, HNRNPA1 / Fold change vs veh, HNRNPA1 / RFU, RNF170 / Fold change vs veh, RNF170 / RFU, ZNF28 / Fold change vs veh, ZNF28 / RFU, RNGTT / Fold change vs veh, RNGTT / RFU, OGT / Fold change vs veh, OGT / RFU, BRD1 / Fold change vs veh, BRD1 / RFU, MARS / Fold change vs veh, MARS / RFU, ZNF655 / Fold change vs veh, ZNF655 / RFU, FAHD1 / Fold change vs veh, FAHD1 / RFU, BDP1 / Fold change vs veh, BDP1 / RFU, LRRCC1 / Fold change vs veh, LRRCC1 / RFU, ARID1A / Fold change vs veh, ARID1A / RFU, ZNF146 / Fold change vs veh, ZNF146 / RFU, ZNF330 / Fold change vs veh, ZNF330 / RFU, GPN3 / Fold change vs veh, GPN3 / RFU, C9orf123 / Fold change vs veh, C9orf123 / RFU, N4BP2L2 / Fold change vs veh, N4BP2L2 / RFU, ARFIP1 / Fold change vs veh, ARFIP1 / RFU, FAM179B / Fold change vs veh, FAM179B / RFU, BCL10 / Fold change vs veh, BCL10 / RFU, UHRF1BP1L / Fold change vs veh, UHRF1BP1L / RFU, BET1 / Fold change vs veh, BET1 / RFU, CNOT2 / Fold change vs veh, CNOT2 / RFU, ZNF268 / Fold change vs veh, ZNF268 / Fold change vs veh, ZNF507 / RFU, DGCR2 / Fold change vs veh, DGCR2 / RFU, WDSUB1 / Fold change vs veh, WDSUB1 / Fold change vs veh, HSP90B1 /// MIR3652 / RFU, ADSS / Fold change vs veh, ADSS / RFU, GK / Fold change vs veh, GK / RFU, ZNF148 / Fold change vs veh, ZNF148 / RFU, TAF9 / Fold change vs veh, TAF9 / RFU, SLC1A5 / Fold change vs veh, SLC1A5 / RFU, SLMO2 / Fold change vs veh, SLMO2 / RFU, ABCC4 / Fold change vs veh, ABCC4 / RFU, LOC101060439 /// RAP1B / Fold change vs veh, LOC101060439 /// RAP1B / RFU, RFX7 / Fold change vs veh, RFX7 / RFU, GTPBP10 / Fold change vs veh, GTPBP10 / RFU, CNEP1R1 / Fold change vs veh, CNEP1R1 / RFU, BIVM-ERCC5 /// ERCC5 / Fold change vs veh, BIVM-ERCC5 /// ERCC5 / RFU, ILF3 / Fold change vs veh, ILF3 / RFU 11762660_at / Fold change /veh 11762660_at / RFU VCAN (11757783_s_at) / Fold change /veh VCAN (11757783_s_at) / RFU DDX43 (11728927_at) / Fold change /veh DDX43 (11728927_at) / RFU KRT8 (11758188_x_at) / Fold change /veh KRT8 (11758188_x_at) / RFU NKD1 (11759106_at) / Fold change /veh NKD1 (11759106_at) / RFU SRD5A1 (11742802_a_at) / Fold change /veh SRD5A1 (11742802_a_at) / RFU TPSAB1 /// TPSB2 (11721975_s_at) / Fold change /veh TPSAB1 /// TPSB2 (11721975_s_at) / RFU GSTM3 (11746129_a_at) / Fold change /veh GSTM3 (11746129_a_at) / RFU IL23R (11737362_x_at) / Fold change /veh IL23R (11737362_x_at) / RFU TMEM51 (11727254_a_at) / Fold change /veh TMEM51 (11727254_a_at) / RFU PIWIL2 (11732686_x_at) / Fold change /veh PIWIL2 (11732686_x_at) / RFU ORM1 (11744905_x_at) / Fold change /veh ORM1 (11744905_x_at) / RFU CCDC152 (11743942_at) / Fold change /veh CCDC152 (11743942_at) / RFU ECM1 (11717891_a_at) / Fold change /veh ECM1 (11717891_a_at) / RFU IL23R (11748794_a_at) / Fold change /veh IL23R (11748794_a_at) / RFU TNFAIP8L3 (11732012_x_at) / Fold change /veh TNFAIP8L3 (11732012_x_at) / RFU MBOAT4 (11741988_at) / Fold change /veh MBOAT4 (11741988_at) / RFU 11764193_at / Fold change /veh 11764193_at / RFU TMEM53 (11763286_at) / Fold change /veh TMEM53 (11763286_at) / RFU MAGEB2 (11727129_at) / Fold change /veh MAGEB2 (11727129_at) / RFU TMEM200A (11744735_a_at) / Fold change /veh TMEM200A (11744735_a_at) / RFU CCDC152 (11751479_a_at) / Fold change /veh CCDC152 (11751479_a_at) / RFU FAM211A (11726209_a_at) / Fold change /veh FAM211A (11726209_a_at) / RFU RGS16 (11746705_a_at) / Fold change /veh RGS16 (11746705_a_at) / RFU VCAN (11755009_s_at) / Fold change /veh VCAN (11755009_s_at) / RFU RHOB (11743442_s_at) / Fold change /veh RHOB (11743442_s_at) / RFU RGS16 (11720943_a_at) / Fold change /veh RGS16 (11720943_a_at) / RFU RGS16 (11720944_at) / Fold change /veh RGS16 (11720944_at) / RFU, VPS4B / Fold change vs veh, VPS4B / RFU, CREB1 / Fold change vs veh, CREB1 / RFU, DNAJC13 / Fold change vs veh, DNAJC13 / RFU, GNAQ / Fold change vs veh, GNAQ / RFU, CDK5R1 / Fold change vs veh, CDK5R1 / RFU, ZRANB3 / Fold change vs veh, ZRANB3 / RFU, CUL4A / Fold change vs veh, CUL4A / RFU, CCNY / Fold change vs veh, CCNY / RFU, UFL1 / Fold change vs veh, UFL1 / RFU, COG3 / Fold change vs veh, COG3 / RFU, DIAPH2 / Fold change vs veh, DIAPH2 / RFU, SKA2 / Fold change vs veh, SKA2 / RFU, AFF3 / Fold change vs veh, AFF3 / RFU, LMF1 / Fold change vs veh, LMF1 / RFU, IPO11 / Fold change vs veh, IPO11 / RFU, DFFB / Fold change vs veh, DFFB / RFU, FOXP1 / Fold change vs veh, FOXP1 / RFU, CARD8 / Fold change vs veh, CARD8 / RFU, STRN3 / Fold change vs veh, STRN3 / RFU, ADK / Fold change vs veh, ADK / RFU, RASSF2 / Fold change vs veh, RASSF2 / RFU, WIPF1 / Fold change vs veh, WIPF1 / RFU, LARP1B / Fold change vs veh, LARP1B / RFU, RASA1 / Fold change vs veh, RASA1 / RFU, RB1 / Fold change vs veh, RB1 / RFU, PPFIA1 / Fold change vs veh, PPFIA1 / RFU, MAT2A / Fold change vs veh, MAT2A / RFU, CCT5 / Fold change vs veh, CCT5 / RFU, WDR92 / Fold change vs veh, WDR92 / RFU, CUX1 / Fold change vs veh, CUX1 / RFU, TTC7A / Fold change vs veh, TTC7A / RFU, TMEM135 / Fold change vs veh, TMEM135 / RFU, DEPTOR / Fold change vs veh, DEPTOR / RFU, CPM / Fold change vs veh, CPM / RFU, DNAJB6 / Fold change vs veh, DNAJB6 / RFU, CACNA2D3 / Fold change vs veh, CACNA2D3 / RFU, DTX4 / Fold change vs veh, DTX4 / RFU, TFCP2 / Fold change vs veh, TFCP2 / RFU, GMCL1 /// GMCL1P1 / Fold change vs veh, GMCL1 /// GMCL1P1 / RFU, AEBP2 / Fold change vs veh, AEBP2 / RFU, SNHG1 /// SNORD22 /// SNORD25 /// SNORD26 /// SNORD27 /// SNORD28 /// SNORD29 /// SNORD31 / Fold change vs veh, SNHG1 /// SNORD22 /// SNORD25 /// SNORD26 /// SNORD27 /// SNORD28 /// SNORD29 /// SNORD31 / Fold change (Aza/veh), C12orf56 (ProbeSet 11735607_a_at) / Fold change (ACY-1035/veh), C12orf56 (ProbeSet 11735607_a_at) / Fold change (Aza/veh), FGFR1OP (ProbeSet 11751329_s_at) / Fold change (ACY-1035/veh), FGFR1OP (ProbeSet 11751329_s_at) / Fold change (Aza/veh), VPS36 (ProbeSet 11739960_a_at) / Fold change (ACY-1035/veh), VPS36 (ProbeSet 11739960_a_at) / RFU SYPL1 (11715823_x_at) / Fold change /veh SYPL1 (11715823_x_at) / RFU IGFBP7 (11715501_s_at) / Fold change /veh IGFBP7 (11715501_s_at) / RFU REEP3 (11722064_at) / Fold change /veh REEP3 (11722064_at) / RFU IGLL1 (11728026_x_at) / Fold change /veh IGLL1 (11728026_x_at): dose or concentration left out as unconfirmed
# Details: MV-4-11 cells, 48 hours
compound,measurement,value
Nc1ccc(-c2cccs2)cc1NC(=O)c1ccc2c(c1)cc(C1CC1)n2CCN1CCOCC1 [ACY-1035],RFU 11762660_at,11.56 RFU
